Data taken from ChEMBL document CHEMBL1828586 (J Med Chem, 2011).
pIC50: −log10 of the molar value.

Experiments:
OVCAR-8 [1] = test: Anticancer activity against human OVCAR8 cells after 96 hrs by SRB assay; type: functional, cell-based; conditions: OVCAR-8, 96 h
[2] = Anticancer activity against mouse B16-F1 cells after 96 hrs by SRB assay; type: functional, cell-based; conditions: B16-F1, 96 h
PPC-1 = test: Anticancer activity against human PPC1 cells after 96 hrs by SRB assay; type: functional, cell-based; conditions: PPC-1, 96 h
DU-145 = test: Anticancer activity against human DU145 cells after 96 hrs by SRB assay; type: functional, cell-based; conditions: DU-145, 96 h
NCI/ADR-RES = test: Anticancer activity against P-gp overexpressing human NCI/ADR-RES cells after 96 hrs by SRB assay; type: functional, cell-based
OVCAR-8 [3] = test: Resistance factor, ratio of IC50 for human NCI-ADR-RES cells to IC50 for drug-sensitive human OVCAR8 cells; type: functional
LNCaP = test: Anticancer activity against human LNCAP cells after 96 hrs by SRB assay; type: functional, cell-based
PC-3 = test: Anticancer activity against human PC3 cells after 96 hrs by SRB assay; type: functional, cell-based; conditions: PC-3, 96 h
A-375 = test: Anticancer activity against human A375 cells after 96 hrs by SRB assay; type: functional, cell-based; conditions: A-375, 96 h
[4] = Anticancer activity against human WM164 cells after 96 hrs by SRB assay; type: functional, cell-based; conditions: WM164, 96 h
Liver microsomes = test: Half life in human liver microsomes; type: ADME, Microsome
[5] = Aqueous solubility of the compound in PBS at 35 ug/ml and pH 7.4 by LC/MS/MS analysis; type: physicochemical; conditions: buffer
[6] = AUC in Sprague-Dawley rat at […], iv by LC-MS/MS analysis; type: ADME, organism-based; design: dose 2.5 mg/kg, route intravenous; conditions: plasma
[7] = AUC in Sprague-Dawley rat at 4 mg/kg, po by LC-MS/MS analysis; type: ADME, organism-based; design: dose 4 mg/kg, route oral; conditions: plasma
[8] = Cmax in Sprague-Dawley rat at […], iv by LC-MS/MS analysis; type: ADME, organism-based; design: dose 2.5 mg/kg, route intravenous; conditions: in vivo
[9] = Cmax in Sprague-Dawley rat at 4 mg/kg, po by LC-MS/MS analysis; type: ADME, organism-based; design: dose 4 mg/kg, route oral; conditions: in vivo
Rattus norvegicus = test: Oral bioavailability in Sprague-Dawley rat at 4 mg/kg by LC-MS/MS analysis; type: ADME, organism-based; conditions: in vivo
[10] = AUC in Sprague-Dawley rat at 10 mg/kg, po by LC-MS/MS analysis; type: ADME, organism-based; design: dose 10 mg/kg, route oral; conditions: plasma
[11] = AUC in Sprague-Dawley rat at 5 mg/kg, iv by LC-MS/MS analysis; type: ADME, organism-based; design: dose 5 mg/kg, route intravenous; conditions: plasma

Compound	pIC50 (OVCAR-8 [1])	pIC50 [2]	pIC50 (PPC-1)	pIC50 (DU-145)	pIC50 (NCI/ADR-RES)	Ratio IC50 (OVCAR-8 [3])	pIC50 (LNCaP)	pIC50 (PC-3)	pIC50 (A-375)	pIC50 [4]	t1/2 (Liver microsomes) [min]	solubility [5]	AUC [6] [ng·h/mL]	AUC [7] [ng·h/mL]	Cmax [8] [ng/mL]	Cmax [9] [ng/mL]	F (Rattus norvegicus) [%]	AUC [10] [ng·h/mL]	AUC [11] [ng·h/mL]
COc1cc(C(=O)c2csc(Nc3ccccc3)n2)cc(OC)c1OC	7.34	7.19	7.27	7.15	7.57	0.6	7.29	7.24											
COc1cc(C(=O)c2cccc(-c3ccccc3)n2)cc(OC)c1OC	7.48	7.41	7.60		7.89	0.4	7.57		7.52										
COc1cc(/C(=N\C#N)c2csc(-c3ccccc3)n2)cc(OC)c1OC	7.47	7.22	7.70	7.38	7.85	0.4	7.64	7.57	7.55	7.57	< 5								
COc1cc(C(=O)c2csc(-c3ccc4[nH]ccc4c3)n2)cc(OC)c1OC	8.00	7.60	8.10	7.89	8.40	0.4		8.15	8.10										
COc1cc(C(=O)c2csc(-c3ccc(CN)cc3)n2)cc(OC)c1OC.Cl	7.59	7.42	7.47		7.96		7.89	7.10	7.39			soluble	2320	6.67	3790	3.2	0.2		
COc1cc(C(=O)c2csc(Nc3ccccc3)n2)cc(OC)c1OC.Cl																		1080	4930
COc1cc(C(=O)c2csc(Nc3ccc(F)cc3)n2)cc(OC)c1OC.Cl																		2670	6350
COc1cc(C(=O)c2csc(-c3ccccc3)n2)cc(OC)c1OC	7.46	7.26								7.19			4650					617	
